Test results as given in ChEMBL document CHEMBL4041531, “Design, synthesis, and biological evaluation of novel 1-oxo-1,2,3,4-tetrahydropyrazino[1,2-a]indole-3-carboxamide analogs in MCF-7 and MDA-MB-468 breast cancer cell lines” (2017).
Calls of active or inactive are those of the source. The calls are words filed in the database; no cut-off is given here.

Legend:
MDA-MB-468 [1] = experiment: Cytotoxicity against gefitinib-resistant human MDA-MB-468 cells assessed as reduction in cell viability after 48 hrs by MTT assay; format: functional; details: MDA-MB-468, 48 h
MCF7 [2] = experiment: Cytotoxicity against human MCF7 cells assessed as cell viability at 10 uM after 48 hrs by MTT assay relative to control; format: functional; details: MCF7, 48 h, read-out: Activity
MDA-MB-468 [3] = experiment: Cytotoxicity against gefitinib-resistant human MDA-MB-468 cells assessed as cell viability at 10 uM after 48 hrs by MTT assay relative to control; format: functional; details: MDA-MB-468, 48 h, read-out: Activity
MCF7 [4] = experiment: Cytotoxicity against human MCF7 cells assessed as cell viability at 30 uM after 48 hrs by MTT assay relative to control; format: functional; details: MCF7, 48 h, read-out: Activity
MDA-MB-468 [5] = experiment: Cytotoxicity against gefitinib-resistant human MDA-MB-468 cells assessed as cell viability at 30 uM after 48 hrs by MTT assay relative to control; format: functional; details: MDA-MB-468, 48 h, read-out: Activity
MCF7 [6] = experiment: Cytotoxicity against human MCF7 cells assessed as reduction in cell viability after 48 hrs by MTT assay; format: functional; details: MCF7, 48 h
MCF7 [7] = experiment: Cytotoxicity against human MCF7 cells assessed as cell viability at 1 uM after 48 hrs by MTT assay relative to control; format: functional; details: MCF7, 48 h, read-out: Activity
MCF7 [8] = experiment: Cytotoxicity against human MCF7 cells assessed as cell viability at 3 uM after 48 hrs by MTT assay relative to control; format: functional; details: MCF7, 48 h, read-out: Activity
MCF7 [9] = experiment: Potency index, ratio of gefitinib GI50 to compound GI50 for human MCF7 cells; format: functional
MDA-MB-468 [10] = details: Homo sapiens, at 10 µM
Description: Inhibition of EGFR in gefitinib-resistant human MDA-MB-468 cells assessed as reduction in Akt phosphorylation at 10 uM after 6 hrs by Western blot method

MDA-MB-468 [11] = details: Homo sapiens, at 10 µM; remark: listed apart in the source
Description: Inhibition of EGFR in gefitinib-resistant human MDA-MB-468 cells assessed as reduction in Akt phosphorylation at 10 uM after 18 hrs by Western blot method

[12] = Selectivity ratio of GI50 for human MCF7 cells to GI50 for gefitinib-resistant human MDA-MB-468 cells; format: functional
MCF7 [13] = experiment: Cytotoxicity against human MCF7 cells assessed as reduction in cell viability at 1 uM after 48 hrs in presence of 1 to 10 uM gefitinib by MTT assay; format: functional, cell-based
MDA-MB-468 [14] = experiment: Cytotoxicity against gefitinib-resistant human MDA-MB-468 cells assessed as cell viability at 10 uM after 48 hrs in presence of 1 uM gefitinib by MTT assay relative to control; format: functional
MDA-MB-468 [15] = experiment: Cytotoxicity against gefitinib-resistant human MDA-MB-468 cells assessed as cell viability at 3 uM after 48 hrs in presence of 1 uM gefitinib by MTT assay relative to control; format: functional
MDA-MB-468 [16] = experiment: Cytotoxicity against gefitinib-resistant human MDA-MB-468 cells assessed as cell viability at 1 uM after 48 hrs in presence of 1 uM gefitinib by MTT assay relative to control; format: functional; details: MDA-MB-468, 48 h, read-out: Activity
MDA-MB-468 [17] = experiment: Cytotoxicity against gefitinib-resistant human MDA-MB-468 cells assessed as cell viability at 10 uM after 48 hrs in presence of 3 uM gefitinib by MTT assay relative to control; format: functional
MDA-MB-468 [18] = experiment: Cytotoxicity against gefitinib-resistant human MDA-MB-468 cells assessed as cell viability at 3 uM after 48 hrs in presence of 3 uM gefitinib by MTT assay relative to control; format: functional; details: MDA-MB-468, 48 h, read-out: Activity
MDA-MB-468 [19] = experiment: Cytotoxicity against gefitinib-resistant human MDA-MB-468 cells assessed as cell viability at 1 uM after 48 hrs in presence of 3 uM gefitinib by MTT assay relative to control; format: functional
MDA-MB-468 [20] = experiment: Cytotoxicity against gefitinib-resistant human MDA-MB-468 cells assessed as cell viability at 10 uM after 48 hrs in presence of 10 uM gefitinib by MTT assay relative to control; format: functional; details: MDA-MB-468, 48 h, read-out: Activity
MDA-MB-468 [21] = experiment: Cytotoxicity against gefitinib-resistant human MDA-MB-468 cells assessed as cell viability at 3 uM after 48 hrs in presence of 10 uM gefitinib by MTT assay relative to control; format: functional
MDA-MB-468 [22] = experiment: Cytotoxicity against gefitinib-resistant human MDA-MB-468 cells assessed as cell viability at 1 uM after 48 hrs in presence of 10 uM gefitinib by MTT assay relative to control; format: functional

Row | Structure (SMILES) | GI50 (MDA-MB-468 [1]) [µM] | viability at 30 µM (MCF7 [4]) [%] | viability at 30 µM (MDA-MB-468 [5]) [%] | also measured
1 | C=CCN1C(=O)c2cc3ccccc3n2C[C@H]1C(=O)NCc1ccco1 | 18.5 | – | – | viability at 10 µM (MCF7 [2]): 98.2%; viability at 10 µM (MDA-MB-468 [3]): 58.4%
2 | Cc1cccc(CNC(=O)[C@@H]2Cn3c(cc4ccccc43)C(=O)N2)c1 | – | 78.1 | 66.3 | –
3 | O=C1N[C@H](C(=O)NCc2ccccc2)Cn2c1cc1ccccc12 | 28.9 | 71.4 | 48.8 | –
4 | COC(=O)[C@H]1Cn2c(cc3ccccc32)C(=O)N1 | – | 79.7 | 82.4 | –
5 | Cc1ccc(CNC(=O)[C@@H]2Cn3c(cc4ccccc43)C(=O)N2)o1 | – | 60.2 | 43 | –
6 | COc1cc2ncnc(Nc3ccc(F)c(Cl)c3)c2cc1OCCCN1CCOCC1 [GEFITINIB] | 9.7 | 16.2 | 6.7 | GI50 (MCF7 [6]): 20.8 µM; viability at 10 µM (MCF7 [2]): 89.7%; viability at 10 µM (MDA-MB-468 [3]): 49.1%; viability at 1 µM (MCF7 [7]): 73.1%; viability at 3 µM (MCF7 [8]): 72.6%
7 | O=C1N[C@@H](C(=O)NCc2ccccc2)Cn2c1cc1ccccc12 | 24 | 61.8 | 45 | –
8 | O=C1N[C@H](C(=O)NCc2ccco2)Cn2c1cc1ccccc12 | 23.1 | 62.1 | 39.7 | –
9 | CN1C(=O)c2cc3ccccc3n2C[C@H]1C(=O)NCc1ccco1 | 15 | – | – | viability at 10 µM (MCF7 [2]): 54.1%; viability at 10 µM (MDA-MB-468 [3]): 56.1%
10 | O=C1N[C@H](C(=O)NCc2ccc(F)cc2)Cn2c1cc1ccccc12 | – | 59.7 | 63.1 | –
11 | C=CCNC(=O)[C@@H]1Cn2c(cc3ccccc32)C(=O)N1 | – | 104 | 94.7 | –
12 | CCCNC(=O)[C@@H]1Cn2c(cc3ccccc32)C(=O)N1 | – | 83.9 | 88 | –
13 | Nc1cccc(CNC(=O)[C@@H]2Cn3c(cc4ccccc43)C(=O)N2)c1 | – | 70.5 | 67.7 | –
14 | O=C1N[C@H](C(=O)Nc2ccccc2)Cn2c1cc1ccccc12 | – | 87.3 | 74.5 | –
15 | O=C1N[C@H](C(=O)NCCc2ccc(O)cc2)Cn2c1cc1ccccc12 | – | 85.5 | 63.1 | –
16 | CCCCCCNC(=O)[C@@H]1Cn2c(cc3ccccc32)C(=O)N1 | – | 71.2 | 61.8 | –
17 | O=C1N[C@@H](C(=O)NCc2ccco2)Cn2c1cc1ccccc12 | 15.9 | 82.5 | 21.2 | –
18 | COC(=O)[C@@H]1Cn2c(cc3ccccc32)C(=O)N1Cc1ccccc1 | – | – | – | viability at 10 µM (MCF7 [2]): 92.6%; viability at 10 µM (MDA-MB-468 [3]): 98.8%
19 | O=C(NCc1cccs1)[C@@H]1Cn2c(cc3ccccc32)C(=O)N1Cc1ccccc1 | 3.8 | – | – | GI50 (MCF7 [6]): 4.6 µM; viability at 10 µM (MCF7 [2]): 35.8%; viability at 10 µM (MDA-MB-468 [3]): 18.5%; RatioGI50 (MCF7 [9]): 4.5; inhibition (MDA-MB-468 [10]): Active; inhibition (MDA-MB-468 [11]): Active

Row | Structure (SMILES) | GI50 (MDA-MB-468 [1]) [µM] | viability at 30 µM (MCF7 [4]) [%] | viability at 30 µM (MDA-MB-468 [5]) [%] | also measured
20 | CC(C)NC(=O)[C@@H]1Cn2c(cc3ccccc32)C(=O)N1 | – | 84.4 | 88.1 | –
21 | Cc1ccc(CNC(=O)[C@@H]2Cn3c(cc4ccccc43)C(=O)N2)cc1 | – | 68 | 61.5 | –
22 | Nc1ccc(CNC(=O)[C@@H]2Cn3c(cc4ccccc43)C(=O)N2)cc1 | – | 76 | 65.4 | –
23 | O=C1N[C@H](C(=O)O)Cn2c1cc1ccccc12 | – | 99.7 | 76.2 | –
24 | COc1ccc(CNC(=O)[C@@H]2Cn3c(cc4ccccc43)C(=O)N2)cc1 | – | 68.8 | 74.7 | –
25 | COC(=O)[C@@H]1Cn2c(cc3ccccc32)C(=O)N1 | – | 85.1 | 102 | –
26 | O=C1N[C@H](C(=O)NCc2cccc(Cl)c2)Cn2c1cc1ccccc12 | 23.4 | 61.7 | 34.8 | –
27 | O=C1N[C@H](C(=O)NCc2ccc(Cl)cc2)Cn2c1cc1ccccc12 | – | 66.1 | 60.3 | –
28 | Cc1ccc(CNC(=O)[C@@H]2Cn3c(cc4ccccc43)C(=O)N2Cc2ccccc2)o1 | – | – | – | viability at 10 µM (MCF7 [2]): 68.7%; viability at 10 µM (MDA-MB-468 [3]): 63.1%
29 | O=C1N[C@H](C(=O)NCc2cccs2)Cn2c1cc1ccccc12 | – | 61.7 | 39.2 | –
30 | O=C1N[C@H](C(=O)NCc2cccc(C(F)(F)F)c2)Cn2c1cc1ccccc12 | – | 59.1 | 62.4 | –
31 | CNC(=O)[C@@H]1Cn2c(cc3ccccc32)C(=O)N1 | – | 77.5 | 82.6 | –
32 | O=C1N[C@H](C(=O)NCc2ccc(C(F)(F)F)cc2)Cn2c1cc1ccccc12 | – | 60.2 | 70.5 | –
33 | O=C(NCc1ccco1)[C@@H]1Cn2c(cc3ccccc32)C(=O)N1Cc1ccccc1 | 5.2 | – | – | GI50 (MCF7 [6]): 19.3 µM; viability at 10 µM (MCF7 [2]): 58.5%; viability at 10 µM (MDA-MB-468 [3]): 23.3%; RatioGI50 [12]: 3.7; Activity (MCF7 [13]): Active; Activity (MDA-MB-468 [14]): 24.3%; Activity (MDA-MB-468 [15]): 40.5%; viability at 1 µM (MDA-MB-468 [16]): 66.3%; viability at 1 µM (MCF7 [7]): 93.6%; viability at 3 µM (MCF7 [8]): 62.5%; Activity (MDA-MB-468 [17]): 19.6%; viability at 3 µM (MDA-MB-468 [18]): 34.3%; Activity (MDA-MB-468 [19]): 61%; viability at 10 µM (MDA-MB-468 [20]): 15.6%; Activity (MDA-MB-468 [21]): 23.8%; Activity (MDA-MB-468 [22]): 40.8%; inhibition (MDA-MB-468 [10]): Active; inhibition (MDA-MB-468 [11]): Active
34 | COc1cccc(CNC(=O)[C@@H]2Cn3c(cc4ccccc43)C(=O)N2)c1 | – | 68.6 | 70.5 | –
35 | O=C(NCc1cccc(Cl)c1)[C@@H]1Cn2c(cc3ccccc32)C(=O)N1Cc1ccccc1 | 9.5 | – | – | GI50 (MCF7 [6]): 8.3 µM; viability at 10 µM (MCF7 [2]): 38.2%; viability at 10 µM (MDA-MB-468 [3]): 46.7%
36 | O=C(NCc1ccccc1)[C@@H]1Cn2c(cc3ccccc32)C(=O)N1Cc1ccccc1 | 7.6 | – | – | GI50 (MCF7 [6]): 9.6 µM; viability at 10 µM (MCF7 [2]): 47.1%; viability at 10 µM (MDA-MB-468 [3]): 28%
37 | O=C1N[C@H](C(=O)NC2CCCCC2)Cn2c1cc1ccccc12 | – | 80.7 | 73.1 | –
